US4415566A, “Cephalosporin derivatives” (Boehringer Ingelheim GmbH, priority 1979, dated 1983)
Values after ≈ are worked out from the molar mass of the structure shown. Like-named read-outs stand apart in the source and are kept apart here.

Tests used:
[1] = system: Klebsiella pneumoniae ATCC 10 031; test: Serial dilution test in the microtiter system (MIC), Klebs. pneum. ATCC 10031; format: cell-based
Description: (§1) These tests were performed according to the method of the serial dilution test in the microtiter system. The effect of the substances on bacteriostasis was examined in a fluid medium. […] A nutrient medium of the following composition was used. 10 gm of peptone, 8 gm of meat extract-oxoid, 3 gm of sodium chloride, 2 gm of sec. sodium phosphate were diluted with distilled water to […] (pH 7.2-7.4). Only in the test against streptococci 1% of glucose was added. The age of the primary cultures was about 20 hours. The standardization of the pathogen suspension was effected by using a photometer according to "Eppendorf" (test tube dismeter 14 mm, filter 546 nm) with the aid of the turbidity of a comparison suspension consisting of barium sulfate, this suspension being prepared by addition of 3.0 ml of 1% barium chloride solution to 97 ml of 1% sulfuric acid. After the standardization, streptococcus aronson were further diluted to a concentration of 1:15 and the other microorganisms to a concentration of 1:1500 by means of a sodium chloride solution.
(§2) 16 mg of the test substance were put into a 10 ml-measuring flask and filled up to the mark with the solvent. The further dilution series was standardized with distilled water or the respective solvent.
(§3) The cavities of the microtiter plates were filled with 0.2 ml of nutrient medium. Then, 0.01 ml of the corresponding test substance dilution was added and inoculated with 0.01 ml of the standardized suspension. The bacteria were incubated at 37° C. for 18-20 hours. Control tests merely using the solvent were carried out simultaneously.
(§4) The measurement was carried out macroscopically to determine the minimal inhibitory (threshold) concentration, i.e. the lower still bacteriostatically effective concentration.
(§5) Staphylococcus aureus SG 511, Escherichia coli ATCC 11 775, Pseudomonas aeruginosa Hamburgensis and Pseudomonas aeruginosa Walter, Serratia marcescens ATCC 13880, Klebsiella pneumoniae ATCC 10 031 and 272, Proteus mirabilis Hamburgensis, Proteus rettgeri, Enterbacter cloaceae ATCC 13 047 and E. Coli R+TEM (β-lactamase carrier).

E. coli ATCC 11775 = test: In vivo activity in mice, E. coli infection; set-up: species or system Female NMRI mice; conditions: Escherichia coli, ATCC11775, iPSC, sc, 168 h; E. coli infection i.p.; s.c. administration; per dose; observation 7 days; read-out: ED50 (dose at which 50% of the animals survived)
Description: (§6) A number of compounds of this invention were tested in vivo in mice against experimental infections. Bacteria E. coli ATCC 11775 and Psuedomonas aeruginosa Walter were used as pathogens. An intraperitoneal infection with 0.2 ml of a 5% suspension of the bacteria was induced. This corresponds to about 2×10^6 E. Coli germs and 8×10^5 pseudomonas germs/mouse. […] The groups with E. coli infection were treated with the test compound three times on the first day (1, 4, and 7 hours post infectionem) and for two days thereafter twice a day. The groups with the pseudomonas infection were treated with the test compound 6 times on the first day (1, 3, 6, 9, 12 and 15 hours post infectionem) and for two days thereafter twice a day. The observation time was in both cases 7 days. The results of these tests with representatives of the penicillins and cephalosporins according to the invention are shown in the following table: […]

Proteus rettgeri = test: Serial dilution test in the microtiter system (MIC), Prot. rettgeri; format: cell-based; conditions: Providencia rettgeri; Table IV; Prot. rettg.; 37° C., 18-20 hours; read-out: MIC
Description: as §1, §2, §3, §4, §5

[2] = system: Pseudomonas aeruginosa Hamburgensis; test: Serial dilution test in the microtiter system (MIC), Pseud. aerug. Hbg.; format: cell-based
Description: as §1, §2, §3, §4, §5

[3] = system: Proteus mirabilis Hamburgensis; test: Serial dilution test in the microtiter system (MIC), Prot. mirabilis; format: cell-based; conditions: Table IV, Prot. mir. Hbg., 37° C., 18-20 hours, read-out: MIC
Description: as §1, §2, §3, §4, §5

[4] = system: Klebsiella pneumoniae 272; test: Serial dilution test in the microtiter system (MIC), Klebs. pneum. 272; format: cell-based
Description: as §1, §2, §3, §4, §5

[5] = system: Staphylococcus aureus SG 511; test: Serial dilution test in the microtiter system (MIC), S. aureus SG 511; format: cell-based; conditions: SG511, Table IV, S. aureus SG 511, 37° C., 18-20 hours, read-out: MIC
Description: as §1, §2, §3, §4, §5

[6] = system: Enterbacter cloaceae ATCC 13 047; test: Serial dilution test in the microtiter system (MIC), Eb. cloaceae ATCC 13047; format: cell-based; conditions: Table IV; Eb. cloaceae; 37° C., 18-20 hours; read-out: MIC
Description: as §1, §2, §3, §4, §5

[7] = system: Psuedomonas aeruginosa Walter; test: In vivo activity in mice, Pseudomonas infection; set-up: species or system Female NMRI mice; conditions: for ED50: Mus musculus, iPSC, sc, 168 h, Pseudomonas infection i.p., s.c. administration, per dose, observation 7 days, read-out: ED50 (dose at which 50% of the animals survived)
Description: as §6

[8] = system: Pseudomonas aeruginosa Walter; test: Serial dilution test in the microtiter system (MIC), Pseud. aerug. Walter; format: cell-based
Description: as §1, §2, §3, §4, §5

[9] = system: Escherichia coli ATCC 11 775; test: Serial dilution test in the microtiter system (MIC), E. Coli ATCC 11775; format: cell-based; conditions: Table IV, E. Coli ATCC 11775, 37° C., 18-20 hours, read-out: MIC
Description: as §1, §2, §3, §4, §5

[10] = system: Serratia marcescens ATCC 13880; test: Serial dilution test in the microtiter system (MIC), Serrat. marcesc. ATCC 13880; format: cell-based; conditions: ATCC13880, Table IV, Serr. marcesc. ATCC 13880, 37° C., 18-20 hours, read-out: MIC
Description: as §1, §2, §3, §4, §5

[11] = Table IV, Klebs. pneum. ATCC 10031, 37° C., 18-20 hours, read-out: MIC
[12] = Table IV, Klebs. pneum. 272, 37° C., 18-20 hours, read-out: MIC

| Compound | MIC [1, 11] | ED50 (E. coli ATCC 11775) | MIC (Proteus rettgeri) | MIC [2] | MIC [3] | MIC [4, 12] | MIC [5] | MIC [6] | ED50 [7] | MIC [8] | MIC [9] | MIC [10] | MIC [4]; 272 | animals died ([7]; Pseudomonas infection, s.c., at 200 mg/kg) | MIC [1] |
| --- | --- | --- | --- | --- | --- | --- | --- | --- | --- | --- | --- | --- | --- | --- | --- |
| Cn1nnnc1SCC1=C(C(=O)O)N2C(=O)[C@@H](NC(=O)[C@H](NC(=O)Nc3cnc(NCc4ccco4)nc3O)c3ccc(O)cc3)[C@H]2SC1 [J] | 0.5 µg/mL (≈ 0.704 µM) | 0.3 mg/kg | 0.5 µg/mL (≈ 0.704 µM) | 8 µg/mL (≈ 11.3 µM) | 0.12 µg/mL (≈ 0.169 µM) | 0.5 µg/mL (≈ 0.704 µM) | 0.5 µg/mL (≈ 0.704 µM) | 0.5 µg/mL (≈ 0.704 µM) | 6.3 mg/kg | 4 µg/mL (≈ 5.64 µM) | 0.25 µg/mL (≈ 0.352 µM) | 0.25 µg/mL (≈ 0.352 µM) |  |  |  |
| Cn1nnnc1SCC1=C(C(=O)O)N2C(=O)[C@@H](NC(=O)[C@H](NC(=O)Nc3cnc(Nc4ccc([S+](C)[O-])nc4)nc3O)c3ccc(O)cc3)[C@H]2SC1 (some centres unmarked) [O] | 0.25 µg/mL (≈ 0.325 µM) |  | 0.5 µg/mL (≈ 0.65 µM) | 4 µg/mL (≈ 5.2 µM) | 0.12 µg/mL (≈ 0.156 µM) | 0.25 µg/mL (≈ 0.325 µM) | 0.25 µg/mL (≈ 0.325 µM) | 0.5 µg/mL (≈ 0.65 µM) |  | 4 µg/mL (≈ 5.2 µM) | 0.25 µg/mL (≈ 0.325 µM) | 0.5 µg/mL (≈ 0.65 µM) |  |  |  |
| Cn1nnnc1SCC1=C(C(=O)O)N2C(=O)[C@@H](NC(=O)[C@H](NC(=O)Nc3cnc(NCc4cccs4)nc3O)c3ccc(O)cc3)[C@H]2SC1 [N] | 0.25 µg/mL (≈ 0.344 µM) | 0.6 mg/kg | 0.5 µg/mL (≈ 0.689 µM) | 8 µg/mL (≈ 11 µM) | 0.12 µg/mL (≈ 0.165 µM) | 0.25 µg/mL (≈ 0.344 µM) | 0.5 µg/mL (≈ 0.689 µM) | 0.25 µg/mL (≈ 0.344 µM) |  | 4 µg/mL (≈ 5.51 µM) | 0.25 µg/mL (≈ 0.344 µM) | 0.25 µg/mL (≈ 0.344 µM) |  |  |  |
| CO/N=C(\C(=O)N[C@@H]1C(=O)N2C(C(=O)O)=C(COC(N)=O)CS[C@H]12)c1ccco1 [Cefuroxim, reference compound] | 2 µg/mL (≈ 4.71 µM) | 37 mg/kg | 2 µg/mL (≈ 4.71 µM) |  | 0.5 µg/mL (≈ 1.18 µM) |  | 1 µg/mL (≈ 2.36 µM) | 32 µg/mL (≈ 75.4 µM) | > 200 mg/kg |  | 8 µg/mL (≈ 18.9 µM) | 8 µg/mL (≈ 18.9 µM) | 4 µg/mL (≈ 9.43 µM) | all animals died |  |
| Cc1ncc(CNc2ncc(NC(=O)N[C@@H](C(=O)N[C@@H]3C(=O)N4C(C(=O)O)=C(CSc5nnnn5C)CS[C@H]34)c3ccc(O)cc3)c(O)n2)cn1 [P] | 0.25 µg/mL (≈ 0.34 µM) |  | 0.25 µg/mL (≈ 0.34 µM) | 4 µg/mL (≈ 5.44 µM) | 0.06 µg/mL (≈ 0.0815 µM) | 0.5 µg/mL (≈ 0.68 µM) | 0.25 µg/mL (≈ 0.34 µM) | 0.5 µg/mL (≈ 0.68 µM) |  | 4 µg/mL (≈ 5.44 µM) | 0.12 µg/mL (≈ 0.163 µM) | 0.25 µg/mL (≈ 0.34 µM) |  |  |  |
| Cn1nnnc1SCC1=C(C(=O)O)N2C(=O)[C@@H](NC(=O)[C@H](NC(=O)Nc3cnc(NCc4cccnc4)nc3O)c3ccc(O)cc3)[C@H]2SC1 [L] |  | 0.2 mg/kg | 0.5 µg/mL (≈ 0.694 µM) |  |  | 0.25 µg/mL (≈ 0.347 µM) | 0.5 µg/mL (≈ 0.694 µM) | 0.25 µg/mL (≈ 0.347 µM) | 4.6 mg/kg |  |  | 0.25 µg/mL (≈ 0.347 µM) |  |  | 0.25 µg/mL (≈ 0.347 µM) |
